According to patent US20120029018A1, “9-SUBSTITUTED PHENANTHRENE BASED TYLOPHORINE DERIVATIVES” (priority 2008, published 2012):
Values after ≈ are worked out from the molar mass of the structure shown. Values joined by “and” are separate entries in the source; they are usually repeats but may differ in a detail not shown here. Equal entries are not always repeated.

Key:
[1] = tested on: KB (nasopharyngeal); test: In vitro anticancer activity against KB cells; format: cell-based, human; conditions: for IC50 KB: KB cells
[2] = tested on: KB-VIN (an MDR KB subline); test: In vitro anticancer activity against KB-VIN cells; format: cell-based, human; conditions: for IC50 KBvin: KBvin cells
[3] = tested on: A549 (lung); test: In vitro anticancer activity against A549 cells; format: cell-based, human; conditions: for IC50 A549: A549 cells
[4] = tested on: DU-145 (prostate); test: In vitro anticancer activity against DU-145 cells; format: cell-based, human; conditions: for IC50 DU145: DU145 cells
[5] = tested on: CL1-0; test: Cell cycle distribution in CL1-0 cells; format: cell-based
Source text: (§1) The reciprocal recruitment of RelA and RelB on COX-2 promoter region led to the downregulation of transcriptional activity. […] PBT-1 may be a good drug candidate for anticancer chemotherapy.

[6] = tested on: lung cancer cells; test: Colony formation of lung cancer cells in vitro; format: cell-based; conditions: FIG. 1, listed as PBT-1
Source text: as §1

[7] = tested on: Akt activation, RelA (p65), NF-κB target genes; test: Akt / NF-κB signaling (gels, FIG. 2); format: cell-based
Source text: as §1

[8] = tested on: apoptosis pathway, MAPK signaling, NF-κB pathway, focal adhesion; test: DNA microarray and pathway analysis; format: cell-based
Source text: as §1

[9] = tested on: cyclin B1 and cyclin D1 protein; test: Cyclin protein levels; format: cell-based
Source text: as §1

[10] = tested on: panel of human tumor cell lines including KB, A549, DU-145 and KB-VIN; conditions: four human cancer cell lines including MDR KB-VIN; previous research (refs 6,7); read-out: IC50 against four types of human cancer cell lines; cited from earlier work
[11] = tested on: panel of human tumor cell lines including KB, A549, DU-145 and KB-VIN; test: In vitro anticancer activity, panel as a whole; format: cell-based; conditions: for IC50 values across the panel: summary of Table 1

## COc1ccc2c(CN3CCCC(CN)C3)cc3cc4c(cc3c2c1)OCO4.Cl.Cl (racemic) [Compound 7]
[1]
  IC50 KB: 0.33 µg/mL
[2]
  IC50 KBvin: 0.38 µg/mL
[3]
  IC50 A549: 0.28 µg/mL
[4]
  IC50 DU145: 0.37 µg/mL

## COc1ccc2c(CN3CCCC(CNC(=O)OC(C)(C)C)C3)cc3cc4c(cc3c2c1)OCO4 (racemic) [Compound 8]
[1]
  IC50 KB: 0.53 µg/mL (≈ 1.11 µM)
[2]
  IC50 KBvin: 0.62 µg/mL (≈ 1.3 µM)
[3]
  IC50 A549: 0.57 µg/mL (≈ 1.19 µM)
[4]
  IC50 DU145: 0.52 µg/mL (≈ 1.09 µM)

## COC(=O)C1CN(Cc2cc3cc4c(cc3c3cc(OC)ccc23)OCO4)CCC1=O (racemic) [Compound 16]
[1]
  IC50 KB: 0.53 µg/mL (≈ 1.26 µM)
[2]
  IC50 KBvin: 0.83 µg/mL (≈ 1.97 µM)
[3]
  IC50 A549: 0.58 µg/mL (≈ 1.38 µM)
[4]
  IC50 DU145: 0.78 µg/mL (≈ 1.85 µM)

## COc1ccc2c(CN3CCC(CO)CC3)cc3cc4c(cc3c2c1)OCO4 [Compound 1]
[1]; Homo sapiens, KB, read-out: IC50 KB
  IC50: 0.07 µg/mL (≈ 0.184 µM)
[2]; Homo sapiens, KBVIN, read-out: IC50 KBvin
  IC50: 0.08 µg/mL (≈ 0.211 µM)
[3]; Homo sapiens, A549, read-out: IC50 A549
  IC50: 0.07 µg/mL (≈ 0.184 µM)
[4]; Homo sapiens, DU-145, read-out: IC50 DU145
  IC50: 0.09 µg/mL (≈ 0.237 µM)
[5]; CL1-0, 2 Hr.
  G1 (%): 53.7%
  G2/M (%): 25.4%
  S (%): 15.1%
[5]; CL1-0, 6 Hr.
  G1 (%): 52.5%
  G2/M (%): 24.3%
  S (%): 15.8%
[5]; CL1-0, 12 Hr.
  G1 (%): 41.7%
  G2/M (%): 27.0%
  S (%): 23.9%
[5]; CL1-0, 16 Hr.
  G1 (%): 20.4%
  G2/M (%): 33.6%
  S (%): 34.1%
[5]; CL1-0, 24 Hr.
  G1 (%): 16.6%
  G2/M (%): 20.9%
  S (%): 43.8%
[5]; Table 2
  cell cycle arrest and apoptosis: induced cell cycle G2/M arrest and apoptosis
[6]
  colony formation of lung cancer cells: significantly suppressed colony formation
[7]
  Akt activation: suppress Akt activation
  expressions of NF-κB target genes: downregulate the expressions of NF-κB target genes
[7]; via IκB kinase-α
  RelA (p65) degradation: accelerate RelA (p65) degradation
[8]
  pathways activated: activated the apoptosis pathway and mitogen-activated protein kinase signaling
  pathways suppressed: suppressed the nuclear factor kappaB (NF-κB) pathway and focal adhesion
[9]
  cyclin B1 and cyclin D1 protein level: accumulation in dose- and time-dependent manners
[10]
  IC50: ~80 nM

## COc1ccc2c(CN3CCCC(NC(=O)OC(C)(C)C)C3)cc3cc4c(cc3c2c1)OCO4 (stereo not drawn) [Compound 9]
[1]
  IC50 KB: 6.43 µg/mL (≈ 13.8 µM)
[2]
  IC50 KBvin: 8.40 µg/mL (≈ 18.1 µM)
[3]
  IC50 A549: 6.77 µg/mL (≈ 14.6 µM)
[4]
  IC50 DU145: 8.00 µg/mL (≈ 17.2 µM)

## COc1ccc2c(CN3CCCC(N)C3)cc3cc4c(cc3c2c1)OCO4.Cl.Cl (stereo not drawn) [Compound 10]
[1]
  IC50 KB: 3.80 µg/mL
[2]
  IC50 KBvin: 3.88 µg/mL
[3]
  IC50 A549: 3.85 µg/mL
[4]
  IC50 DU145: 4.20 µg/mL

## COc1ccc2c(CN3CCC(NC(=O)OC(C)(C)C)CC3)cc3cc4c(cc3c2c1)OCO4 [Compound 11]
[1]
  IC50 KB: 0.40 µg/mL (≈ 0.861 µM)
[2]
  IC50 KBvin: 0.49 µg/mL (≈ 1.05 µM)
[3]
  IC50 A549: 0.41 µg/mL (≈ 0.883 µM)
[4]
  IC50 DU145: 0.43 µg/mL (≈ 0.926 µM)

## COc1ccc2c(CN3CCC(N)CC3)cc3cc4c(cc3c2c1)OCO4.Cl.Cl [Compound 12]
[1]
  IC50 KB: 0.24 µg/mL
[2]
  IC50 KBvin: 0.29 µg/mL
[3]
  IC50 A549: 0.16 µg/mL
[4]
  IC50 DU145: 0.34 µg/mL

## COc1ccc2c(CN3CCC(C(F)(F)F)CC3)cc3cc4c(cc3c2c1)OCO4 [Compound 13]
[1]
  IC50 KB: 3.88 µg/mL (≈ 9.3 µM)
[2]
  IC50 KBvin: 3.12 µg/mL (≈ 7.47 µM)
[3]
  IC50 A549: 2.74 µg/mL (≈ 6.56 µM)
[4]
  IC50 DU145: 5.24 µg/mL (≈ 12.6 µM)

## COc1ccc2c(CN3CCC(C#N)CC3)cc3cc4c(cc3c2c1)OCO4 [Compound 14]
[1]
  IC50 KB: 0.42 µg/mL (≈ 1.12 µM)
[2]
  IC50 KBvin: 0.43 µg/mL (≈ 1.15 µM)
[3]
  IC50 A549: 0.33 µg/mL (≈ 0.881 µM)
[4]
  IC50 DU145: 0.41 µg/mL (≈ 1.09 µM)

## COc1ccc2c(CN3CCC(=O)CC3)cc3cc4c(cc3c2c1)OCO4 [Compound 15]
[1]
  IC50 KB: 0.04 µg/mL (≈ 0.11 µM)
[2]
  IC50 KBvin: 0.05 µg/mL (≈ 0.138 µM)
[3]
  IC50 A549: 0.04 µg/mL (≈ 0.11 µM)
[4]
  IC50 DU145: 0.04 µg/mL (≈ 0.11 µM)
[11]
  IC50 values across the panel: ~0.04 µg/mL (≈ 0.11 µM)

## COc1ccc2c(CN3CCC(NS(C)(=O)=O)CC3)cc3cc4c(cc3c2c1)OCO4 [Compound 17]
[1]
  IC50 KB: 0.29 µg/mL (≈ 0.655 µM)
[2]
  IC50 KBvin: 0.48 µg/mL (≈ 1.08 µM)
[3]
  IC50 A549: 0.45 µg/mL (≈ 1.02 µM)
[4]
  IC50 DU145: 0.45 µg/mL (≈ 1.02 µM)

## COC(=O)C1CCCN(Cc2cc3cc4c(cc3c3cc(OC)ccc23)OCO4)C1 (stereo not drawn) [Compound 18]
[1]
  IC50 KB: 0.79 µg/mL (≈ 1.94 µM)
[2]
  IC50 KBvin: 1.24 µg/mL (≈ 3.04 µM)
[3]
  IC50 A549: 0.76 µg/mL (≈ 1.87 µM)
[4]
  IC50 DU145: 1.09 µg/mL (≈ 2.68 µM)

## COC(=O)C1CCCN(Cc2cc3cc4c(cc3c3cc(OC)ccc23)OCO4)C1 (stereo not drawn) [Compound 19]
[1]
  IC50 KB: 0.53 µg/mL (≈ 1.3 µM)
[2]
  IC50 KBvin: 0.58 µg/mL (≈ 1.42 µM)
[3]
  IC50 A549: 0.53 µg/mL (≈ 1.3 µM)
[4]
  IC50 DU145: 0.61 µg/mL (≈ 1.5 µM)

## COc1ccc2c(CN3CCC(CN)CC3)cc3cc4c(cc3c2c1)OCO4.Cl.Cl [Compound 20]
[1]
  IC50 KB: 0.12 µg/mL
[3]
  IC50 A549: 0.22 µg/mL
[4]
  IC50 DU145: 0.16 µg/mL

## COc1ccc2c(CN3CCC(O)CC3)cc3cc4c(cc3c2c1)OCO4 [Compound 21]
[1]
  IC50 KB: 0.03 µg/mL (≈ 0.0821 µM)
[3]
  IC50 A549: 0.03 µg/mL (≈ 0.0821 µM)
[4]
  IC50 DU145: 0.04 µg/mL (≈ 0.109 µM)
[11]
  IC50 values across the panel: ~0.04 µg/mL and 0.03 to 0.04 µg/mL
[11]; vs compound 1
  fold more active compared with compound 1: about 2 fold

## COc1ccc2c(CN3CCCC(=O)C3)cc3cc4c(cc3c2c1)OCO4 [Compound 22]
[1]
  IC50 KB: 0.30 µg/mL (≈ 0.826 µM)
[3]
  IC50 A549: 0.29 µg/mL (≈ 0.798 µM)
[4]
  IC50 DU145: 0.39 µg/mL (≈ 1.07 µM)
[11]; vs compound 15
  decrease of inhibitory potency, oxo group at C-3′ (15 vs. 22): about 8 fold

## COc1ccc2c(CN3CCCC(CO)C3)cc3cc4c(cc3c2c1)OCO4 (stereo not drawn) [Compound 23]
[1]
  IC50 KB: 0.07 µg/mL (≈ 0.184 µM)
[3]
  IC50 A549: 0.05 µg/mL (≈ 0.132 µM)
[4]
  IC50 DU145: 0.06 µg/mL (≈ 0.158 µM)

## COc1ccc2c(CN3CCCC(CO)C3)cc3cc4c(cc3c2c1)OCO4 (stereo not drawn) [Compound 24]
[1]
  IC50 KB: 0.07 µg/mL (≈ 0.184 µM)
[3]
  IC50 A549: 0.07 µg/mL (≈ 0.184 µM)
[4]
  IC50 DU145: 0.10 µg/mL (≈ 0.264 µM)

## COc1ccc2c(CN3CCC(CNC(=O)OC(C)(C)C)CC3)cc3cc4c(cc3c2c1)OCO4 [Compound 25]
[1]
  IC50 KB: 0.43 µg/mL (≈ 0.898 µM)
[3]
  IC50 A549: 0.27 µg/mL (≈ 0.564 µM)
[4]
  IC50 DU145: 0.40 µg/mL (≈ 0.836 µM)
